# Experimental data published in ChEMBL document CHEMBL1201862, “PubChem BioAssay data set” (2004).
# Active and inactive are the calls of the source.
# Legend:
# [1] = molecular target: DNA dC->dU-editing enzyme APOBEC-3A (Homo sapiens, UniProt P31941); test: Dose Response confirmation of small molecule APOBEC3A DNA Deaminase Inhibitors via a fluorescence-based single-stranded DNA deaminase assay. [Related pubchem assays (depositor defined):AID493011, AID493024]; assay type: functional
# [2] = molecular target: T1, Mannose-6-phosphate isomerase (Homo sapiens, UniProt P34949); test: inhibitors of human PMI, primary screen, biochemical, fluorescence intensity, coupled assay (AID 1209)
# T1 sequence (P34949 whole entry): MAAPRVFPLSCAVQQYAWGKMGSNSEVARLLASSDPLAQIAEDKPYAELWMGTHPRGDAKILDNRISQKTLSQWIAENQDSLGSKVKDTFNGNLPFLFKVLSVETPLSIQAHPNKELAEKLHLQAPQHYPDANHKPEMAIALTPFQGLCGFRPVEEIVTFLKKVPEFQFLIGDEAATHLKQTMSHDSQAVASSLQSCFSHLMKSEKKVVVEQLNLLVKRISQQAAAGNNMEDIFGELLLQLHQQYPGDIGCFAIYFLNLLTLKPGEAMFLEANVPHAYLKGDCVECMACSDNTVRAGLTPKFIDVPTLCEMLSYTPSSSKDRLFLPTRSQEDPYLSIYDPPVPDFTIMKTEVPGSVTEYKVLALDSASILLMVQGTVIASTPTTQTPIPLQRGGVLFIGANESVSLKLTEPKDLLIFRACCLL
# [3] = molecular target: DNA dC->dU-editing enzyme APOBEC-3G (Homo sapiens, UniProt Q9HC16); assay type: functional;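 note: Dose-response counterscreen measuring inhibition of APOBEC3G DNA deaminase activity, run while confirming APOBEC3A inhibitors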
# [4] = Luminescent dose response cell-based high throughput screening assay for inhibitors of the Janus kinase 2 mutant JAK2V617F. [Related pubchem assays: 1446 (Primary screen.), 1521 (Confirmation assay.), 1486 (Counter screen.)]; assay type: functional
# [5] = molecular target: Protein-tyrosine kinase 2-beta (Homo sapiens, UniProt Q14289);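 note: potency of inhibitors of PYK2 kinase phosphorylation of poly-GT substrate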
# Cytochrome P450 2C19 = Cytochrome P450 2C19 (Homo sapiens, UniProt P33261); test: Cytochrome panel assay with activity outcomes. Panel member name: p450-cyp2c19 Compounds with AC50 equal or less than 10 uM are considered active; assay type: functional; conditions: read-out: AC50
# Cytochrome P450 1A2 = molecular target: T2, Cytochrome P450 1A2 (Homo sapiens, UniProt P05177);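 note: PubChem cytochrome P450 panel assay, CYP1A2 panel member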
# T2 sequence (P05177 whole entry): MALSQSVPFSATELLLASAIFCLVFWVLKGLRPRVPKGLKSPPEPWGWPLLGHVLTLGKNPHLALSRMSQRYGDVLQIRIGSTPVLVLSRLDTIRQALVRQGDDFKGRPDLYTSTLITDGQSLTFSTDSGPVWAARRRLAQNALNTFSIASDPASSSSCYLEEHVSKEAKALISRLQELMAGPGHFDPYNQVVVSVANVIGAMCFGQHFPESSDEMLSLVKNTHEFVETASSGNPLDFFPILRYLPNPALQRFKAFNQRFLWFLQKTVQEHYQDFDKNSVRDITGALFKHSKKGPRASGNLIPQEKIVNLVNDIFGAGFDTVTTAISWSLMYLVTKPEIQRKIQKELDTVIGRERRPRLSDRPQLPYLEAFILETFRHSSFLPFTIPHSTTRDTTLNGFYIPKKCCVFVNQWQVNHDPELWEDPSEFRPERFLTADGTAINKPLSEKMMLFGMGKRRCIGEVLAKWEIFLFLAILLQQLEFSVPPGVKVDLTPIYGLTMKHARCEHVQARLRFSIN
# Cytochrome P450 2C9 = Cytochrome P450 2C9 (Homo sapiens, UniProt P11712)
# [6] = molecular target: T3, Heat shock factor protein 1 (Mus musculus, UniProt P38532); test: HSF1 potentiators in luciferase reporter cells, confirmation, cell-based, NIH3T3, luminescence, dose retest (AID 435004); assay type: functional;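 note: stress induced by proteasome inhibitor MG132 added 30 min after compound; luciferase reporter driven by HSF1 response element in NIH3T3 cells; actives raise luminescence as potentiators of the MG132 stress response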
# T3 sequence (P38532 whole entry): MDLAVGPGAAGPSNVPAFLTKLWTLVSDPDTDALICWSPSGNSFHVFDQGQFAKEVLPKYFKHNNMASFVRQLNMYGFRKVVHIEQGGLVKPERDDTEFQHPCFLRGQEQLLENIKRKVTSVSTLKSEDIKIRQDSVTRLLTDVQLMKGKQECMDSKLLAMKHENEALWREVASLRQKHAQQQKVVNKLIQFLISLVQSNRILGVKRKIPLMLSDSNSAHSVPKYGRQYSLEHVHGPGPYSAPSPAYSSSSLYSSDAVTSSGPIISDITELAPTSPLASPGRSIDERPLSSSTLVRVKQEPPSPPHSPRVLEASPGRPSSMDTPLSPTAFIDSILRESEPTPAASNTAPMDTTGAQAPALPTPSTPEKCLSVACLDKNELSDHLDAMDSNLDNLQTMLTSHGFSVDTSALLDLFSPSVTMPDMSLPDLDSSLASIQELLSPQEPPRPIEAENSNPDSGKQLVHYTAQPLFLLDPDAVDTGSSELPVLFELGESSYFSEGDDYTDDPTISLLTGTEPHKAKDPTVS
# [7] = molecular target: T4, RNA-binding protein pos-1 (Caenorhabditis elegans, UniProt G5EF15); test: inhibitors of POS-1/mex-3 RNA binding, dose response, biochemical, fluorescence polarization (AID 1964);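 note: purified POS-1 fused to maltose binding protein made in E. coli; potency of compounds blocking POS-1 binding to fluorescent RNA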
# T4 sequence (G5EF15 whole entry): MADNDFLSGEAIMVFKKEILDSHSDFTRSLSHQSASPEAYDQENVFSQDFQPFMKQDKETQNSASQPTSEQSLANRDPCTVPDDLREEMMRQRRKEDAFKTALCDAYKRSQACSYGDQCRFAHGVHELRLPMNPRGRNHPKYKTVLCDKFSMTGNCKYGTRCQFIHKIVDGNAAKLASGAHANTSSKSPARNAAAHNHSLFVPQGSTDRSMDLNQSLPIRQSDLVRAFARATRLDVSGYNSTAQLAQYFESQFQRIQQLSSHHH
# [8] = molecular target: Bifunctional protein GlmU (Mycobacterium tuberculosis, UniProt P9WMN3); test: Inhibitors of Mycobacterial Glucosamine-1-phosphate acetyl transferase (GlmU). Secondary screen.; parameters: species or system Mycobacterium tuberculosis H37Rv
# [9] = molecular target: T5, Carboxy-terminal domain RNA polymerase II polypeptide A small phosphatase 1 (Homo sapiens, UniProt Q9GZU7); test: inhibitors of CTDSP1, concentration-response testing, biochemical assay, absorbance-based, actives from ultra-high-throughput screening (AID 540297); assay type: functional
# T5 sequence (Q9GZU7 whole entry): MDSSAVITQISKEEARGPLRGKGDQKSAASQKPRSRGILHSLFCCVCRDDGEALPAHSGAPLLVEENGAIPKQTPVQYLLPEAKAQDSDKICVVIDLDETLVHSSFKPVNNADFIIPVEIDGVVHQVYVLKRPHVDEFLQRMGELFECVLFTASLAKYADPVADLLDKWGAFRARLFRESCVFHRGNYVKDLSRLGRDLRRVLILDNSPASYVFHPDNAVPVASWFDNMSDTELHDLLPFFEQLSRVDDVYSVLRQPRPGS
# [10] = molecular target: T6, Histone-lysine N-methyltransferase NSD2 (Homo sapiens, UniProt O96028); assay type: biochemical
# T6 sequence (O96028 whole entry): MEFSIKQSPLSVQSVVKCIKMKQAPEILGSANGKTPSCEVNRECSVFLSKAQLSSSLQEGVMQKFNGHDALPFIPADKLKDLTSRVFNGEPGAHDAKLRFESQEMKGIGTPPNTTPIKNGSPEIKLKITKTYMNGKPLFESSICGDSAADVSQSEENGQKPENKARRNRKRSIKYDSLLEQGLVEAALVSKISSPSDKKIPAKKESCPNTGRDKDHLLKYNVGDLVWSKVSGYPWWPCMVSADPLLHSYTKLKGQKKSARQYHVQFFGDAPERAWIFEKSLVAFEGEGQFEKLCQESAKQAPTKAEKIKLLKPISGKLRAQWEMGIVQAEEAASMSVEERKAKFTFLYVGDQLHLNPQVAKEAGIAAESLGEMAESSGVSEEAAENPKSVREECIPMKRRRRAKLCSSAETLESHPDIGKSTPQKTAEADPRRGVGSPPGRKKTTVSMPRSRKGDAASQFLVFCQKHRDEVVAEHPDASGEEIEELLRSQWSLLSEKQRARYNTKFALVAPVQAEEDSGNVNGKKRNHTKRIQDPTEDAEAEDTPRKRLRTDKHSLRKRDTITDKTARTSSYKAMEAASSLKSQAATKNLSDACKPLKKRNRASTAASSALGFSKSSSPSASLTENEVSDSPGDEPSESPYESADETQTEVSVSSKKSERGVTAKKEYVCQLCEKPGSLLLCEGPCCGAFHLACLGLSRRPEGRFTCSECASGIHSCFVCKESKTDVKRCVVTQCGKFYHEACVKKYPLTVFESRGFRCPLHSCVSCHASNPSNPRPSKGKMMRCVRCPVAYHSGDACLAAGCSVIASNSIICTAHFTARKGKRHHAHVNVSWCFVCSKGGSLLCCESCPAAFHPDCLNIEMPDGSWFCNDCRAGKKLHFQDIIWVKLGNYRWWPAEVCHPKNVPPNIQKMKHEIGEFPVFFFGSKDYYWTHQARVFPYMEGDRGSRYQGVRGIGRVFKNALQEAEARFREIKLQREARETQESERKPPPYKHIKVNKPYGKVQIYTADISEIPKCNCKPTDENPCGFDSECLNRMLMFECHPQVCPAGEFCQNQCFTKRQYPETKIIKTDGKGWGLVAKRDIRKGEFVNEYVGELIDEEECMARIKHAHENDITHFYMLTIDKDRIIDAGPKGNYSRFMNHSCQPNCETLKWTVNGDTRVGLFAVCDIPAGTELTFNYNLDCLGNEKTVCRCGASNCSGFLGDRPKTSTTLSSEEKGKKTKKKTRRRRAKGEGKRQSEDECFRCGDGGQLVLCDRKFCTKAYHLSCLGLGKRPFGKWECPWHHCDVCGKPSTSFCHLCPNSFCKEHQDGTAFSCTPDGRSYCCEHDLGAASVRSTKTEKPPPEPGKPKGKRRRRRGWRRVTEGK
# Chain of DNA dC->dU-editing enzyme APOBEC-3G (Q9HC16 whole entry): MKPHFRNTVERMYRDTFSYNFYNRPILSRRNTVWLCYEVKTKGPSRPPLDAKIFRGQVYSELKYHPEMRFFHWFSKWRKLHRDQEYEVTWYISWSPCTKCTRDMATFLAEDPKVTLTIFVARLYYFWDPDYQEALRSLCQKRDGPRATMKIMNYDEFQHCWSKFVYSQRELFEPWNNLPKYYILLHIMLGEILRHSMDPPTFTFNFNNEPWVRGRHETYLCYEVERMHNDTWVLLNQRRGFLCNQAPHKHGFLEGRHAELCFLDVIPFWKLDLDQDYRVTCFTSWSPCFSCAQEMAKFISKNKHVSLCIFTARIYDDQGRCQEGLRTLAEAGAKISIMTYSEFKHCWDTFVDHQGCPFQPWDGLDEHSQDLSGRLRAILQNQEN
# Chain of DNA dC->dU-editing enzyme APOBEC-3A (P31941 whole entry): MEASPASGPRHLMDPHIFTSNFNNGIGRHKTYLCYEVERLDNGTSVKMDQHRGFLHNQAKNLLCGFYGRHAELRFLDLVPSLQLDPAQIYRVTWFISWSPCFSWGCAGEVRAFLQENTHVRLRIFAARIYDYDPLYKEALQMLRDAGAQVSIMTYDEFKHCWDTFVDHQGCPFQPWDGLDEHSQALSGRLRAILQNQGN
# Chain of Protein-tyrosine kinase 2-beta (Q14289 whole entry): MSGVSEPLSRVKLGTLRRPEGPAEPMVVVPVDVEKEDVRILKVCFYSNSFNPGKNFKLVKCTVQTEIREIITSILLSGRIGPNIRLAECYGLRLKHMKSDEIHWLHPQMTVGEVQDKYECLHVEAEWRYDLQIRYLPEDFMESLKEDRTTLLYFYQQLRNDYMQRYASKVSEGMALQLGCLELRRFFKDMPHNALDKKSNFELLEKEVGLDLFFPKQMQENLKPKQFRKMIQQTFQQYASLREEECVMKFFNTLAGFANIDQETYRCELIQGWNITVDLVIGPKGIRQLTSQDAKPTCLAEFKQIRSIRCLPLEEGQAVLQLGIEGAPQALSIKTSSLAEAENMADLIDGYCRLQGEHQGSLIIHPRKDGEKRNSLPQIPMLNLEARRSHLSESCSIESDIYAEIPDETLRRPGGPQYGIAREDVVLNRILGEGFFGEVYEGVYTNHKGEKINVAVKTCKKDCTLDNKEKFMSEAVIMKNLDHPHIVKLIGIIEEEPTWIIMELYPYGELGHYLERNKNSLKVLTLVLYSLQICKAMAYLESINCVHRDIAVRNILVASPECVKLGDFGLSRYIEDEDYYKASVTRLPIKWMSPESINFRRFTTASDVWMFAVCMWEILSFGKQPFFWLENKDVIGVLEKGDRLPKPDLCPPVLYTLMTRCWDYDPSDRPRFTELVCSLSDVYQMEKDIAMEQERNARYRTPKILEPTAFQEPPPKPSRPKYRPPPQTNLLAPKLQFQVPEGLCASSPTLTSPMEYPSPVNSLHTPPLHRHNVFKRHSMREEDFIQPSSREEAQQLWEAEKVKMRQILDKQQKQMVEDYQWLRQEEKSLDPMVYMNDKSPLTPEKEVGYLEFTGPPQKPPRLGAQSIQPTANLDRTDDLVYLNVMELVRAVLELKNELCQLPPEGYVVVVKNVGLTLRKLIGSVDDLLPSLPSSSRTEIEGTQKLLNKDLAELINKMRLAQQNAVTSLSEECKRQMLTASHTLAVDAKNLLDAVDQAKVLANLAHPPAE
# Chain of Cytochrome P450 2C19 (P33261 whole entry): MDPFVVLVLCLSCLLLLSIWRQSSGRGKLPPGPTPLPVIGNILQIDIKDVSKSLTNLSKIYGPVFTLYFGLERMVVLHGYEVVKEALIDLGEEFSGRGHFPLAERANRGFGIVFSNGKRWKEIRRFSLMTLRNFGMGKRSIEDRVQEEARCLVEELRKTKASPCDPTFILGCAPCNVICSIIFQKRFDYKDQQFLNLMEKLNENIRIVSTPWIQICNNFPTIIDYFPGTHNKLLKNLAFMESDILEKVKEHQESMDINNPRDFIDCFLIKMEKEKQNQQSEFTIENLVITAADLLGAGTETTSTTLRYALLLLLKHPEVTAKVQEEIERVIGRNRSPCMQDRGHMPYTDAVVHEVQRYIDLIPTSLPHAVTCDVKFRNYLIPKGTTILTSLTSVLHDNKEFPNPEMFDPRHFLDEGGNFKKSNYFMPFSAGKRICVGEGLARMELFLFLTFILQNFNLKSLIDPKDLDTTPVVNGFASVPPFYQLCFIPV
# Chain of Cytochrome P450 2C9 (P11712 whole entry): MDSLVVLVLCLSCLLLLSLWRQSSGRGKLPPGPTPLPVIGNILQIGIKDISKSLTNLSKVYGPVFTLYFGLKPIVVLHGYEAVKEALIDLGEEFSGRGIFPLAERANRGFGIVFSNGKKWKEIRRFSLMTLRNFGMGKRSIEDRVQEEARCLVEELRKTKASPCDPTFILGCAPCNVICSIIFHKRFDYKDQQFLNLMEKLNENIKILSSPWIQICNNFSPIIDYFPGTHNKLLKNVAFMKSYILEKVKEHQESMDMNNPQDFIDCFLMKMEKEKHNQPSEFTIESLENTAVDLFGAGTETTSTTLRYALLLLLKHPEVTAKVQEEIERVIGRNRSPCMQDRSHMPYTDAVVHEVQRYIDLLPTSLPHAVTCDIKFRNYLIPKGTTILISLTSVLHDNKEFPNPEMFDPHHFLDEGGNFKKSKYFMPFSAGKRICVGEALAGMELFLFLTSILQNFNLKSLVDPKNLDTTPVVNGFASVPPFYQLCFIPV
# Chain of Bifunctional protein GlmU (P9WMN3 whole entry, the tested form may be a part): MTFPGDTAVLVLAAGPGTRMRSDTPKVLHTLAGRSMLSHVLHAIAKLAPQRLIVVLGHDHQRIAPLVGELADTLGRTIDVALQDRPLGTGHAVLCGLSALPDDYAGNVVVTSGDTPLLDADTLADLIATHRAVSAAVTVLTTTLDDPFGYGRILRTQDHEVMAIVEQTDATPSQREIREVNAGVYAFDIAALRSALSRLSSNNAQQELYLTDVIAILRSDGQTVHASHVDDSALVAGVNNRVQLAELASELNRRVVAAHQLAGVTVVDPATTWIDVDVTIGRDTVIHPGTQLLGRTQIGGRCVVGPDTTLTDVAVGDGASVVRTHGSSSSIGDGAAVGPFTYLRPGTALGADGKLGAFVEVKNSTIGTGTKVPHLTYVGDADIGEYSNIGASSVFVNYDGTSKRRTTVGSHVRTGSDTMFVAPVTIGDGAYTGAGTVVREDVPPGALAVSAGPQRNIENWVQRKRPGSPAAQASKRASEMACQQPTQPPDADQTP
smiles,measurement,setting,value
C[N+]12CCC(CC1)C(C#N)(N1CCOCC1)C2 (configuration not stated),IC50,[1],4.57 µM (active)
same,IC50,[2],> 50 µM (not active)
same,IC50,[3],4.38 µM (active)
COC(=O)COc1cccc2c(=O)n(CC(=O)NCc3ccc(F)cc3)ccc12,IC50,[4],1.14 µM (active)
O=[N+]([O-])c1cccc(/C=C/c2nc3cc([N+](=O)[O-])ccc3[nH]2)c1,IC50,[5],20 µM (not active)
N#Cc1ccccc1/C=N/Nc1nc(-c2ccccc2)c2cc(Cl)ccc2n1,AC50,Cytochrome P450 2C19,25.1 µM (inconclusive)
same,IC50,[5],> 69.5 µM (not active)
same,AC50,Cytochrome P450 1A2,7.08 µM (inconclusive)
same,AC50,Cytochrome P450 2C9,2.24 µM (inconclusive)
O=C(/C(=N/N=C/c1ccc(O)c(O)c1)c1ccccc1)c1ccccc1,EC50,[6],> 260 µM (inactive)
same,IC50,[4],1.8 µM (active)
Cc1cc(/C=N/NC(=O)c2cccc(N(C)C)c2)c(C)n1-c1cc(C(=O)O)cc(C(=O)O)c1,EC50,[7],> 300 µM (not active)
same,IC50,[1],9.31 µM (active)
same,IC50,[8],166 µM (active)
same,IC50,[3],20.6 µM (active)
same,IC50,[9],2.07 µM (active)
same,AC50,[10],> 20 µM (inactive)
